Entries after “also recorded” stand apart in the source; their conditions may differ. Marks after values point to notes of the source that are not given here.
Columns and labels:
[1] = system: MCF7; test: breast cancer cell viability after 72 h of doxorubicin and RARG agonists co-treatment; assay type: cell-based, human; conditions: MCF7, doxorubicin LD50 with agonist co-treatment, 10 μM, footnote: 1 μM each, 72 h; Vehicle 0.490
Procedure: (§2) 384-well plate-based cell viability, caspase 3/7 activity, and reactive oxygen species (ROS) assays. […] Luminescence was measured using a VarioSkan Lux Multi-Mode Reader (Thermo Scientific) with an integration time of 0.25 sec. 10 μM staurosporine (MedChemExpress) was used as a positive control. […] 10 μM staurosporine and 50 μM menadione (both MedChemExpress) was used as a positive control, respectively. Data were analyzed using Prism 7.0 software (GraphPad) using standard dose-response guidelines.
Breast cancer cell lines. Four human breast cancer cell lines were used, MCF7 (adenocarcinoma, ATCC HTB-22) and Hs 578T (carcinsarcoma, ATCC HTB-126) both cultured in RPMI 1640 (Corning) with 10% FBS (Opti-Gold, GenDEPOT), MDA-MB-231 (adenocarcinoma, ATCC HTB-26) and MDA-MB-468 (adenocarcinoma, ATCC HTB-131) both cultured in DMEM (Corning) with 10% FBS. All cells were cultured on uncoated tissue culture plates (Greiner) and passaged with TrypLE Express (Gibco).

[2] = system: C57BL/6J Mice; test: mouse model of doxorubicin-induced cardiomyopathy, echocardiography; assay type: in vivo; conditions: doxorubicin 3 mg kg^−1 i.p. twice weekly for 3 weeks, agonist 12 mg kg^−1 oral once a day, at three weeks
From the text: (§1) Mouse model of doxorubicin-induced cardiomyopathy and drug administration. […] For the control group, we treated mice with corn oil in the same schedule as agonist administration. We recorded an echocardiogram once a week (day 0, day 7, day 14, and day 21) and terminated the experiment at day 21. Hearts were harvested for western blot analyses as mentioned above.
Echocardiographic evaluation. Mice were studied at baseline and weekly during the protocol under light anesthesia with isoflurane (induction 3%, maintenance 1.5%). 2D images in the parastemal short axis were obtained with a GE Vivid 7 ultrasound system (GE Healthcare) equipped with a 13 MHz transducer. Left ventricular end-systolic (LVESD) and end-diastolic (LVEDD) dimensions were measured and left ventricular fractional shortening (FS) was calculated.

[3] = system: TOP2B, pERK and BCL2 in the hearts of mice; test: Western blot of mouse hearts at three weeks after treatment; assay type: in vivo; conditions: doxorubicin plus oral agonist
Procedure: Western blot. We washed and harvested cells in cold PBS and collected them by centrifugation at 20,000 g for 10 min. at 4° C. Pellet was lysed in PBS containing 1% SDS and protease inhibitors (cOmplete, ROCHE) and sonicated (2 pulses of 12 sec at 125 Watt) to shear DNA. We centrifuged the samples at 20,000 g for 15 min. at RT to precipitate and discard the insoluble material and the protein concentration in the supernatant was quantified using BCA assay (Thermo Scientific) following manufacturer's instructions. 20 μg protein/sample were subject to SDS-PAGE in a 9% acrylamide gel for 45 min. at 180 V. and transferred to a PVDF membrane (Immobilon-P, Millipore) at 200 mA. For 90 min. Membranes were blocked in TBST containing 5% milk for 1 h. at RT and incubated at 4° C. overnight with the following primary antibodies: 1:1000 monoclonal rabbit IgG RARG (Abcam, ab187159), 1:1000 polyclonal rabbit IgG TOP2B (Abcam, ab125297), 1:5000 polyclonal rabbit IgG β-Tubulin (Sigma, T2200), 1:5000 monoclonal mouse IgG2a β-Actin (Sigma, A5316). The membrane was washed three times for 10 min with TBST and incubated with the appropriate secondary antibody: 1:5,000 HRP-goat anti-mouse IgG or HRP-goat anti-rabbit IgG (GE NA931V and NA934V) for 1 h. at RT. After three additional washes with TBST, membranes were developed by chemiluminiscence (SuperSignal West Pico, Thermo Scientific). Signals were captured using a CCD camera-based imager (Azure Biosystems) and quantified using Image J software. Mice heart tissues were harvested and homogenized using lysis buffer (80 mM NaCl, 0.05% Triton X, 1 mM EDTA, 20 mM HEPES, 0.5% sodium deoxycholate, 1 mM DTT, 20 mM β-glycerophosphate) with TissueLyser LT (Qiagen) and centrifuged at 10,000 rpm for 15 min at 4° C. Proteins were quantified with Bradford (Bio-Rad) and separated by TrisGlycine SDS/PAGE (Bio-Rad). Transferred proteins on nitrocellulose membrane were probed against TOP2B (R&D Systems), phosphorylated ERK1/2 (Cell Signaling Technologies), BCL2 (Santa Cruz Biotechnology), and GAPDH (Advanced ImmunoChemical).
as §1

[4] = system: RARG-WT hiPSC-CMs; conditions: RARG-WT hiPSC-CMs, agonist 1 μM, 72 h doxorubicin
Procedure: as §2

[5] = system: ERK1/2; test: MSD analysis of phosphorylated ERK in hiPSC-CMs; assay type: cell-based, human; conditions: Control hiPSC-CMs treated with doxorubicin 24 h, with or without pre/co-treatment
Procedure: MSD analysis of phosphorylated ERK. hiPSC-CMs were collected in lysis buffer (150 mM NaCl, 1% TritonX-100, 50 mM Tris-HCl, pH 8.0) supplemented with Phosphatase Inhibitor II (1:100, Sigma-Adrich), Phosphatase Inhibitor Cocktail 3 (1:100, Sigma-Adrich), 1 mM NaVO4 and protease inhibitors (cOmplete, ROCHE). We centrifuged the samples at 50,000 g for 15 min. at 4° C. to precipitate and discard the insoluble material and the protein concentration in the supernatant was quantified using BCA assay (Thermo Scientific) following manufacturer's instructions. 2.5 μg protein/sample were analyzed using the MSD Phospho(Thr202/yr204; Thr185/Tyr187)/Total ERK1/2 Assay Whole Cell Lysate Kit (Meso Scale Discovery, K15100D-1), according to manufacturer's recommendations. The ratio of phosphorylated ERK was normalized to Total ERK1/2 signal, and analyzed using Prism 7.0 software (GraphPad).

[6] = system: control hiPSC-CMs; conditions: 1 μM CD1530 and 30 μM U0126, Control hiPSC-CMs, 72 h doxorubicin
Procedure: as §2

Row | Structure (SMILES) | LD50 [1] | cardiac function (fractional shortening) compared with vehicle treatment [2] | pERK in the murine hearts [3] | increase of doxorubicin LD50 [4] [fold] | pERK [5] | BCL2 in the murine hearts [3] | TOP2B in the murine hearts [3] | effect of ERK signaling inhibition on the protective effect of CD1530 [6]
1 | CC1=C(/C=C/C(C)=C/C=C/C(C)=C/C(=O)O)C(C)(C)CCC1 [ATRA, 3,7-Dimethyl-9-(2,6,6-trimethyl-1-cyclohexen-1-yl)-2E,4E,6E,8E-nonatetraenoic acid] | 0.355 µM | marginally improved | significantly increased | – | – | – | – | –
2 | O=C(O)c1ccc2cc(-c3ccc(O)c(C45CC6CC(CC(C6)C4)C5)c3)ccc2c1 [CD437, 6-(4-Hydroxy-3-tricyclo[3.3.1.13,7]dec-1-ylphenyl)-2-naphthalenecarboxylic acid] | 0.343 µM | – | – | – | – | – | – | –
3 | O=C(O)c1ccc(-c2ccc3cc(O)c(C45CC6CC(CC(C6)C4)C5)cc3c2)cc1 [CD1530, 4-(6-Hydroxy-7-tricyclo[3.3.1.13,7]dec-1-yl-2-naphthalenyl)benzoic acid] | 0.275** μM | significantly higher | significantly increased | 4 | significant increase in pERK; also recorded: significant upregulation of ERK expression | significant upregulation | modest but non-significant downregulation | –
4 | N#CC(=C(/N)Sc1ccccc1N)/C(C#N)=C(\N)Sc1ccccc1N [U0126] | – | – | – | – | – | – | – | completely abolished the protective effect of CD1530

— patent US11135236B2, “Retinoic acid receptor gamma agonists to attenuate anthracycline-induced cardiotoxicity” (Northwestern University, priority 2018, dated 2021)
